From paper PMC9130233, “An inhibitor of RORγ for chronic pulmonary obstructive disease treatment” (Scientific Reports, 2022)

What was measured:
[1] = test system: Nuclear receptors (RORα, RARα, LXRα, LXRβ, RXR, FXR); experiment: Cerep panel, nuclear receptors: binding assays; design: key: NSE No significant effect; V wk very weak (very low-level agonist activity seen with mPPARγ); conditions: at 10 µM
Source text: Based on the homology of the ligand binding domains, 3 different isoforms of ROR (hRORα, hRORβ and hRORγ) are reported. Small variations in the LBD regions possibly lead to differences in competitive binding between the nuclear receptors of the ROR isoforms (Fig. 1b). Similar to the assessment of RORγ binding assay, TR-FRET binding assays were also used to assess the affinity of PCCR-1 for other ROR isoforms. […] This was reconfirmed in cellular functional assays for the selected isoforms and nuclear receptors using Gal4 DBD with luciferase reporter system from Indigo (PA, USA). […] In addition, both cellular agonist and antagonist effects as well as for enzyme activity were evaluated with a known reference compound for each target, using a radiolabeled method (Eurofins Cerep, France, Table 1).

mouse RORγ LBD = target: T1, mouse RORγ LBD (Mus musculus, UniProt P51450); experiment: RORγt-LBD co-activator ligand binding TR-FRET assay, mouse; conditions: n = 6
T1 construct: RORγt-LBD region 264-516aa; made in house
Source text: To identify small molecule RORγ inhibitors, we conducted in vitro screening using a TR-FRET binding assay to determine the inhibition of RORγ with a series of different compounds. With extensive effort and from hit identification to lead optimization, PCCR-1 was identified[29] (Fig. 1A). Based on the homology of the ligand binding domains (LBD) between different ROR isoforms (hRORα, hRORβ and hRORγ), slight variations have been observed in the LBD regions which possibly lead to differences in competitive binding between the isoforms (Fig. 1B). Simultaneous binding of a tracer and antibody results in an increase in fluorescence resonance energy transfer (FRET), which decreases with displacement of the tracer upon inhibitor binding.
The human and mouse RORγt cDNA clones were obtained from OriGene (MD USA). […] The next day, plate was read on Infinite F500 reader (Magellan Tecan Switzerland). […] The percent activity of each dilution was determined as the ratio of background corrected signal to the background corrected signal of wells receiving only DMSO. IC50 values were determined by fitting percent inhibition data in GraphPad Prism (version-5.01) software.

[2] = test system: IL-17 release from COPD patient whole blood; experiment: IL-17 release, whole blood from COPD patients; assay type: cell-based; conditions: Homo sapiens; TCR stimulated, n = 5; read-out: IL-17 IC50, COPD patient's sample: WB
Experimental: Whole blood and BAL samples from COPD patients were obtained from Multispecialty hospital, Mumbai post approval from ethics committee and informed consent of patients. 30–40 mL Broncho alveolar lavage (BALf) was collected per patient and stored in ice. Blood was collected in heparin vaccutainer as per approved protocol. Both the samples were processed within 2 h of collection. BALF was passed through 100-µm and 40-µm cell strainer to remove debris and mucus, the samples were centrifuged and the cells were re-suspended in RPMI 1640 complete medium. PBMCs from blood were isolated using Histopaque-1077 by density gradient centrifugation. Isolated BAL cells and PBMCs were seeded in 96 well coated with 10 µg/ml anti-CD3 and 2 µg/ml anti-CD2. Cells were further treated with different concentration of test compound for 60 min followed by stimulation with 20 µg/ml anti-CD28 and incubated for 48–72 h. The supernatant was used for estimating IL-17 by ELISA.

[3] = test system: IL-17A release in canine PBMC; experiment: IL-17A release, canine PBMC, anti-CD3 + anti-CD28; assay type: cell-based; conditions: Canis lupus familiaris, anti-CD3 + anti-CD28, n = 6, read-out: Cellular activity: Canine IC50, IL-17A release
Experimental: Inhibition of RORγ by PCCR-1 was also estimated in a functional assay by measuring the inhibition of Th17 dependent cytokine IL-17A release in human peripheral blood mononuclear cells (PBMCs), mouse splenocytes and canine PBMC stimulated with their respective anti-CD3 and anti-CD28 antibodies.
Canine PBMCs were procured from Lonza (Cologue, Germany). Frozen canine PBMCs was quickly thawed in a 37 °C water bath and cells were seeded in 96-well plates coated with canine anti-CD3mAb (30 µg/mL). Cells were further treated with the compound similar to human PBMC with co-stimulation of canine anti-CD28 mAb (10 µg/mL). After 72 h of incubation the supernatant was collected for estimating canine IL-17 by ELISA.

T1 sequence (P51450 264-516): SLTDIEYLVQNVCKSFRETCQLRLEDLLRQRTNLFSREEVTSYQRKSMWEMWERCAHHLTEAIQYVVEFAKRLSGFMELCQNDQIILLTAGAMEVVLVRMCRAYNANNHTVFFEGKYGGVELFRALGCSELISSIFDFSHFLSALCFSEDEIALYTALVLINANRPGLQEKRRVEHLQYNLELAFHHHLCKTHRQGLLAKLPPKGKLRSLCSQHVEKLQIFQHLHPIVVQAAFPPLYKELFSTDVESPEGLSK

## CCn1c(C(C)(C)Oc2ccc(F)cc2F)nc2cc(NC(=O)Cc3ccc(S(=O)(=O)CC)cc3)ccc21 [PCCR-1]
[1]
  Nuclear receptors: binding assays (RORα, RARα, LXRα, LXRβ, RXR, FXR): NSE at 10 µM
Mouse RORγ LBD
  IC50: 778 nM
[2]
  IC50: 5050 nM
[3]
  IC50: 504 nM
